Patent publication US7932284B2, “Indole sulfonamide modulators of progesterone receptors” (Eli Lilly and Company, priority 2006, dated 2011)

Experiments:
[1] = tested on: uterine endometrial transformation; assay: McPhail Assay; type: in vivo, New Zealand White Rabbits; conditions: rabbits; for McPhail Index** @ 10 mpk (Antagonist Mode): in combination with progesterone on days 7-12, antagonist mode; for McPhail Index** @ 30 mpk (Agonist Mode): compound alone on days 7-12, agonist mode
Description: The effects of progesterone receptor modulators on uterine endometrial transformation are evaluated in New Zealand White Rabbits (Harlan, 800-900 g) using the McPhail assay adapted from McPhail, MK. J Physiol, 1934:145-156. To evaluate antagonistic effects of compounds, the rabbits are treated sc with cyclodextrin-encapsulated 17-β-estradiol (Sigma, 10.52 ug/kg/day in 1 ml of saline) on days 1-6. The rabbits are then treated sc with progesterone (Sigma, 1.0 mg/kd/day in 1 ml of corn oil) in combination with compound of the present invention (in 15% Povidone K12, 10% Pluronic F68 (poloxamer 188) in deionized water (DIW): probe sonicated to mean<2 micron, 3 ml dose volume) on days 7-12. To evaluate agonist effects of compound, the rabbits are treated with either a compound of interest or progesterone alone on days 7-12. On day 13 the animals are sacrificed, uteri removed and fixed in zinc formalin (Richard-Allan Scientific). The fixed uteri are sectioned into 2-3 mm transverse slices and stained with haematoxylin and eosin. A total of six slices (a proximal, medial and distal section from each uterine horn) are evaluated histologically and the progestational effect is scored using the McPhail index. The McPhail test can be used to identify SPRMs.

[2] = tested on: uterine C3 expression (complement 3 mRNA; PR antagonist potential); assay: C3 Rat Uterine Assay; type: in vivo, Sprague Dawley female rats; conditions: immature female rats, oral gavage, with R5020 0.1 mg/kg sc and ethynyl estradiol 50 ug/kg, 3 doses at 24 hour intervals
Description: Addition of a potential PR antagonist can then neutralize the blocking effect of the PR agonist, resulting in a measurable increase in uterine C3 expression.
Immature Sprague Dawley female rats (21 days old, each approximately 50 g in weight) are first administered the R5020 progestin subcutaneously in sesame oil vehicle at 0.1 mg/kg. The rats are then treated with ethynyl estradiol at a dose of 50 ug/kg plus a compound of interest at doses ranging from 1-30 mg/kg made up in 20% β-hydroxycyclodextran in water for an oral gavage volume of 0.3 ml. This dosing is done 3 times at 24 hour intervals. The control groups include rats treated with one of the following (administered and dosed as described above): 1) estrogen (E2) vehicle+R5020 vehicle, 2) E2+R5020 vehicle, 3) E2+R5020, and 4) E2+R5020+asoprisnil (comparator compound, 5 mg/kg). The rats are sacrificed by decapitation 2 hours after the final dose (50 hours total dosing time). Uteri are removed and cleaned of adipose tissue, and ½ (1 uterine horn) is flash-frozen in liquid nitrogen. The tissue is homogenized in TRIzol reagent using lysing matrix beads.
The RNA is isolated by chloroform extraction of the homogenized tissue, followed by isopropanol precipitation of the aqueous layer. The RNA is further purified by binding to a silica-gel based membrane or magnetic bead with a nucleic acid binding surface, and then eluted off with water. The RNA is converted to single strand cDNA via reverse transcriptase. These cDNA templates are analyzed by quantitative real-time PCR which multiplexes the C3 primer/probe set to an endogenous control gene. The resulting C3 data is normalized to the internal control. (Adapted from Lundeen, S. G. et al. J. Steroid Biochemistry and Molecular Biology, 2001, 78, 137-143.) Table 9 below provides data for representative compounds prepared according to the present invention.

[3] = molecular target: T1, human progesterone receptor (PR) (Homo sapiens, UniProt P06401); assay: PR CTF assay (co-transfected HEK293 cells, GRE-luciferase reporter); type: cell-based; conditions: antagonist mode, with 0.05-0.08 nM R5020, 24 h
T1 construct: expressed in transfected cells; host or cells: HEK293
T1 sequence (P06401 1-933): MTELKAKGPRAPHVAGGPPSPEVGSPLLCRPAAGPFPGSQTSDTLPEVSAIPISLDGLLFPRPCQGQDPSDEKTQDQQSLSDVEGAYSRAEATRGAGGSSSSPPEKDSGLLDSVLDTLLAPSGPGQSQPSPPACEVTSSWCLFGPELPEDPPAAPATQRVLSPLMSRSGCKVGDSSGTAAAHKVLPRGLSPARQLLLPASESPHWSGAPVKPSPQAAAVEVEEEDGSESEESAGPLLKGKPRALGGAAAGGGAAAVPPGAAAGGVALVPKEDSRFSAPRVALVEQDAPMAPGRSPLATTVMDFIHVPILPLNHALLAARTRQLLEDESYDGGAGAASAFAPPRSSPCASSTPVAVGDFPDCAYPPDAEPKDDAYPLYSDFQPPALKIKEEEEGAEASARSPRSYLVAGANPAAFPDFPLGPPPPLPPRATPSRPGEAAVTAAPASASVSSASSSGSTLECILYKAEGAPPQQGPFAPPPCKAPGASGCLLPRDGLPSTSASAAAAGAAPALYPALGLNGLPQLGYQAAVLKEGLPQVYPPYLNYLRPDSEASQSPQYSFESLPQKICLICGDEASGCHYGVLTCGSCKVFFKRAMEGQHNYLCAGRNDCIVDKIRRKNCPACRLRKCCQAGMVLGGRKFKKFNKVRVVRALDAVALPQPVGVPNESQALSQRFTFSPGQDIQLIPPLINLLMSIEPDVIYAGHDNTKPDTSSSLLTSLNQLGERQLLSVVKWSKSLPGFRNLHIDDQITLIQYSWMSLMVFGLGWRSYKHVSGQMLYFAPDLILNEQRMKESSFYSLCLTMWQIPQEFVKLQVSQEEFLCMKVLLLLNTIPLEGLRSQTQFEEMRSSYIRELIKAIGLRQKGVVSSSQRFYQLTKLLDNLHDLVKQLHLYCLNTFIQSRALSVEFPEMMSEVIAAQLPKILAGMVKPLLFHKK
Description: Human embryonic kidney HEK293 cells are co-transfected using Fugene. Briefly, the reporter plasmid pGL3 containing two copies of GRE (glucocorticoid response element ^5'[NT]3) and TK promoter upstream of the luciferase reporter cDNA is transfected with a plasmid constitutively expressing human progesterone receptor (PR), using viral CMV promoter. Cells are transfected in T225 cm^2 flasks in DMEM media with 5% charcoal-stripped Fetal Bovine Serum (FBS). After an overnight incubation, transfected cells are trypsinized, plated in 96 well dishes in DMEM media containing 5% charcoal-stripped FBS, incubated for 4 h and then exposed to various concentrations of test compounds in 1:4 dilution increments. In the antagonist assays low concentrations of agonist (0.05-0.08 nM of R5020) is also added to the media. After 24 h of incubation with compounds, cells are lysed and luciferase activity is determined. Data is fit to a 4 parameter-fit logistics curve to determine EC50 and IC50 values. The % efficacy is determined versus maximum stimulation obtained with 30 nM R5020. In the antagonist mode the % inhibition is determined verses the effects of 30 nM R5020 alone.

Structure (SMILES) | McPhail Index** @ 10 mpk (Antagonist Mode) [1] | McPhail Index** @ 30 mpk (Agonist Mode) [1] | ED50 [2] [mg/kg] | IC50 [3] [nM] | melting point [°C]
CCCCn1cc(-c2ccc(C#N)c(F)c2)c2ccc(NS(C)(=O)=O)cc21 [Example 53, N-[1-Butyl-3-(4-cyano-3-fluoro-phenyl)-1H-indol-6-yl]-methanesulfonamide] | +++ (+++ ≧3) | ++ (++ 2-3) | > 10 | – | –
CC(C)n1cc(-c2ccc([N+](=O)[O-])cc2)c2ccc(NS(C)(=O)=O)cc21 [Example 197, N-[1-Isopropyl-3-(4-nitro-phenyl)-1H-indol-6-yl]-methanesulfonamide] | ++ (++ 2-3) | + (+ <2) | < 5 | – | –
CC(C)n1cc(-c2ccc(C#N)nc2)c2ccc(NS(C)(=O)=O)cc21 [Example 48, N-[3-(6-Cyano-pyridin-3-yl)-1-isopropyl-1H-indol-6-yl]-methanesulfonamide] | + (+ <2) | + (+ <2) | < 5 | ~11.7 | –
CC(C)n1cc(-c2cc(C#N)nn2C)c2ccc(NS(C)(=O)=O)cc21 [Example 121, N-[3-(5-Cyano-2-methyl-2H-pyrazol-3-yl)-1-isopropyl-1H-indol-6-yl]-methanesulfonamide] | – | – | – | – | 189 to 191
Cc1cc(-c2cn(C(C)C)c3cc(NS(C)(=O)=O)ccc23)ccc1C#N [Ex 49, N-[3-(4-Cyano-3-methyl-phenyl)-1-isopropyl-1H-indol-6-yl]-methanesulfonamide] | – | – | < 5 | – | –
CC(C)n1cc(-c2ccc(C#N)c(Cl)c2)c2ccc(NS(C)(=O)=O)cc21 [Example 50, N-[3-(4-Cyano-3-chloro-phenyl)-1-isopropyl-1H-indol-6-yl]-methanesulfonamide] | + (+ <2) | + (+ <2) | < 5 | – | –
CCn1nc(C#N)cc1-c1cn(C(C)C)c2cc(NS(C)(=O)=O)ccc12 [Example 124, N-[3-(5-Cyano-2-ethyl-2H-pyrazol-3-yl)-1-isopropyl-1H-indol-6-yl]-methanesulfonamide] | – | – | – | – | 144 to 145
CC(C)n1cc(-c2cc(F)c(C#N)c(F)c2)c2ccc(NS(C)(=O)=O)cc21 [Example 170, N-[3-(4-Cyano-3,5-difluoro-phenyl)-1-isopropyl-1H-indol-6-yl]-methanesulfonamide] | +++ (+++ ≧3) | +++ (+++ ≧3) | < 5 | – | –
